In ChEMBL document CHEMBL1155557, “New quinoline alkaloids from Ruta chalepensis” (2000):
≈ marks a conversion by molar mass, not a printed value.

Legend:
Format in all cases: functional
Bacillus subtilis = assay: Antibacterial activity against Bacillus subtilis by microtiter plate assay
[1] = test system: Mycolicibacterium smegmatis; assay: Antibacterial activity against Mycobacterium smegmatis by microtiter plate assay
Candida albicans = assay: […] activity against Candida albicans by microtiter plate assay
Staphylococcus aureus = assay: Antibacterial activity against Staphylococcus aureus by microtiter plate assay

SMILES	MIC (Bacillus subtilis)	MIC [1]	MIC (Candida albicans)	MIC (Staphylococcus aureus)
COc1c2ccccc2nc2occc12 [DICTAMNINE]	100 µg/mL (≈ 502 µM)	100 µg/mL (≈ 502 µM)		
COc1ccc2nc3occc3c(OC)c2c1 [PTELEINE]	50 µg/mL (≈ 218 µM)	50 µg/mL (≈ 218 µM)	50 µg/mL (≈ 218 µM)	50 µg/mL (≈ 218 µM)
Cn1c2ccccc2c(=O)c2c(O)cc3c(c21)CC(C(C)(O)CCl)O3 (configuration not stated) [ISOGRAVACRIDONECHLORINE]	100 µg/mL (≈ 278 µM)	100 µg/mL (≈ 278 µM)		
CC(O)CCCCc1ccc2c(c1)OCO2 (configuration not stated) [MOSKACHAN C]	100 µg/mL (≈ 450 µM)	100 µg/mL (≈ 450 µM)		
COc1ccc2c(OC)c3ccoc3nc2c1OC [SKIMMIANINE]	100 µg/mL (≈ 386 µM)	100 µg/mL (≈ 386 µM)		
